Assay results: patent US20240215577A1, “FUNGICIDAL PYRIDONES” (FMC Corporation, priority 2021, published 2024)

Tests used:
[1] = tested on: Botrytis cinerea; experiment: Test E: tomato Botrytis, preventive spray on tomato seedlings; format: in vivo; details: 50 ppm, 100 = 100% disease control, 0 = no control; for pest or weed control at 50 ppm: Botrytis cinerea, read-out: Test E disease control rating
In short: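 Compounds dissolved in acetone (3% of final volume), suspended in 50/50 acetone/water with 250 ppm PEG400, sprayed to run-off on seedlings. Spore inoculation next day; 48 h saturated atmosphere at 20° C, then 3 days at 24° C. Visual disease rating 0–100% control relative to controls.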

[2] = tested on: Alternaria solani; experiment: Test F: tomato early blight, preventive spray on tomato seedlings; format: in vivo; details: 50 ppm, 100 = 100% disease control, 0 = no control; for pest or weed control at 50 ppm: Alternaria solani, read-out: Test F disease control rating
In short: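 Compounds in acetone/water (50/50) with 250 ppm PEG400 were sprayed to run-off on tomato seedlings and inoculated with Alternaria solani spores the next day. Plants were held in saturated humidity at 27° C for 48 h, then at 20° C for 3 days. Disease control was rated visually, 0–100, against controls.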

[3] = tested on: Phakopsora pachyrhizi; experiment: Test D: Asian soybean rust, preventive spray on soybean seedlings; format: in vivo; details: 50 ppm, 100 = 100% disease control, 0 = no control; for pest or weed control at 50 ppm: Phakopsora pachyrhizi, 216 h, read-out: Test D disease control rating
In short: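 Soybean seedlings sprayed to run-off with compound suspension (ppm, in 50/50 acetone/water with 250 ppm PEG400), inoculated next day with P. pachyrhizi spores, held 24 h saturated at 22°C then 8 days at 22°C. Visual rating 0-100% disease control relative to controls.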

[4] = tested on: Zymoseptoria tritici; experiment: Test A: wheat leaf blotch, preventive spray on wheat seedlings; format: in vivo; details: 50 ppm, 100 = 100% disease control, 0 = no control; for pest or weed control at 50 ppm: Zymoseptoria tritici, read-out: Test A disease control rating
In short: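 Wheat seedlings were sprayed to run-off with compound in acetone/water 50/50 containing 250 ppm PEG400 and inoculated with Z. tritici spores the next day. Plants were held 48 h saturated at 24 °C, then 17 days at 20 °C. Disease was rated 0–100% control relative to controls.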

[5] = tested on: Puccinia recondita f. sp. tritici; experiment: Test B: wheat leaf rust, preventive spray on wheat seedlings; format: in vivo; details: 50 ppm, 100 = 100% disease control, 0 = no control; for pest or weed control at 50 ppm: Puccinia recondita, read-out: Test B disease control rating
In short: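 Wheat seedlings sprayed to run-off with compound suspended at set ppm in 50/50 acetone/water (3% acetone pre-dissolution, 250 ppm PEG400); inoculated with rust spores next day. Held 24 h saturated at 20° C., then 7 days in growth chamber at 20° C.; visual rating, 0–100% disease control versus controls.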

[6] = tested on: Blumeria graminis f. sp. tritici; experiment: Test C: wheat powdery mildew, preventive spray on wheat seedlings; format: in vivo; details: 50 ppm, 100 = 100% disease control, 0 = no control; for pest or weed control at 50 ppm: Blumeria graminis, read-out: Test C disease control rating
In short: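 Preventive assay: wheat seedlings sprayed to run-off with compound at the stated ppm (acetone/water 50/50, 250 ppm PEG400), dusted with B. graminis f. sp. tritici spores the following day, then kept 8 days at 20°C. Disease control visually scored 0-100 versus controls.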

## COc1cc(OC)c(Br)c(-c2cn(C)c(=O)c(Cl)c2-c2ccc(F)cc2F)c1 [Compound 9, 5-(2-bromo-3,5-dimethoxyphenyl)-3-chloro-4-(2,4-difluorophenyl)-1-methyl-2(1H)-pyridinone]
[1]
  pest or weed control at 50 ppm: 98%
[2]
  pest or weed control at 50 ppm: 100%
other
  melting point: 211 to 214 °C
[3]
  pest or weed control at 50 ppm: 100%
[4]
  pest or weed control at 50 ppm: 100%
[5]
  pest or weed control at 50 ppm: 100%
[6]
  pest or weed control at 50 ppm: 99%

## COc1cc(OC)c(Cl)c(-c2cn(C)c(=O)c(C)c2-c2ccc(F)cc2Cl)c1 [Compound 13, 5-(2-chloro-3,5-dimethoxyphenyl)-4-(2-chloro-4-fluorophenyl)-1,3-dimethyl-2(1H)-pyridinone]
[1]
  pest or weed control at 50 ppm: 94%
[2]
  pest or weed control at 50 ppm: 100%
other
  melting point: 140 to 143 °C
[3]
  pest or weed control at 50 ppm: 100%
[4]
  pest or weed control at 50 ppm: 100%
[5]
  pest or weed control at 50 ppm: 100%
[6]
  pest or weed control at 50 ppm: 100%

## COc1ccc(Br)c(-c2cn(C)c(=O)c(Cl)c2-c2ccc(F)cc2F)c1 [Compound 20, 5-(2-bromo-5-methoxyphenyl)-3-chloro-4-(2,4-difluorophenyl)-1-methyl-2(1H)-pyridinone]
[1]
  pest or weed control at 50 ppm: 98%
[2]
  pest or weed control at 50 ppm: 99%
other
  melting point: 227 to 230 °C
[3]
  pest or weed control at 50 ppm: 97%
[4]
  pest or weed control at 50 ppm: 100%
[5]
  pest or weed control at 50 ppm: 100%
[6]
  pest or weed control at 50 ppm: 98%

## COc1ccc(Cl)c(-c2cn(C)c(=O)cc2-c2ccc(C#N)cc2Cl)c1 [Compound 59]
[1]
  Test E disease control rating: 95%
[2]
  Test F disease control rating: 0%
[3]
  Test D disease control rating: 0%
[4]
  Test A disease control rating: 99%
[5]
  Test B disease control rating: 92%
[6]
  Test C disease control rating: 0%

## Cc1cc(F)ncc1-c1cn(C)c(=O)c(Cl)c1-c1ccc(F)cc1Cl [Compound 60]
[1]
  Test E disease control rating: 97%
[2]
  Test F disease control rating: 40%
[3]
  Test D disease control rating: 65%
[4]
  Test A disease control rating: 99%
[5]
  Test B disease control rating: 95%
[6]
  Test C disease control rating: 73%

## COc1ccc(Cl)c(-c2cn(C)c(=O)c(Cl)c2-c2ccccc2F)c1 [Compound 61]
[1]
  Test E disease control rating: 98%
[2]
  Test F disease control rating: 100%
[3]
  Test D disease control rating: 94%
[4]
  Test A disease control rating: 100%
[5]
  Test B disease control rating: 100%
[6]
  Test C disease control rating: 89%

## COc1ccc(Cl)c(-c2cn(C)c(=O)cc2-c2ccccc2Br)c1 [Compound 62]
[1]
  Test E disease control rating: 98%
[2]
  Test F disease control rating: 0%
[3]
  Test D disease control rating: 0%
[4]
  Test A disease control rating: 37%
[5]
  Test B disease control rating: 74%
[6]
  Test C disease control rating: 0%

## Cc1ccsc1-c1cn(C)c(=O)c(Cl)c1-c1ccc(F)cc1Cl [Compound 63]
[1]
  Test E disease control rating: 88%
[2]
  Test F disease control rating: 0%
[3]
  Test D disease control rating: 0%
[4]
  Test A disease control rating: 84%
[5]
  Test B disease control rating: 80%
[6]
  Test C disease control rating: 0%

## COc1ccc(Cl)c(-c2cn(C)c(=O)c(Cl)c2-c2cccc(F)c2F)c1 [Compound 64]
[1]
  Test E disease control rating: 96%
[2]
  Test F disease control rating: 100%
[3]
  Test D disease control rating: 87%
[4]
  Test A disease control rating: 98%
[5]
  Test B disease control rating: 100%
[6]
  Test C disease control rating: 87%

## COc1ccc(Cl)c(-c2cn(C)c(=O)cc2-c2cccc(F)c2F)c1 [Compound 65]
[1]
  Test E disease control rating: 96%
[2]
  Test F disease control rating: 0%
[3]
  Test D disease control rating: 0%
[4]
  Test A disease control rating: 8%
[5]
  Test B disease control rating: 95%
[6]
  Test C disease control rating: 0%

## Cn1cc(-c2cccc([N+](=O)[O-])c2)c(-c2ccc(F)cc2Cl)c(Cl)c1=O [Compound 66]
[1]
  Test E disease control rating: 79%
[2]
  Test F disease control rating: 0%
[3]
  Test D disease control rating: 0%
[4]
  Test A disease control rating: 42%
[5]
  Test B disease control rating: 80%
[6]
  Test C disease control rating: 0%

## COc1ccc(-c2cc(=O)n(C)cc2-c2cc(OC)ccc2Cl)c(Cl)c1 [Compound 68]
[1]
  Test E disease control rating: 88%
[2]
  Test F disease control rating: 73%
[3]
  Test D disease control rating: 0%
[4]
  Test A disease control rating: 61%
[5]
  Test B disease control rating: 98%
[6]
  Test C disease control rating: 0%

## COc1ccc(-c2c(-c3cc(OC)ccc3Cl)cn(C)c(=O)c2Cl)c(Cl)c1 [Compound 69]
[1]
  Test E disease control rating: 98%
[2]
  Test F disease control rating: 100%
[3]
  Test D disease control rating: 79%
[4]
  Test A disease control rating: 100%
[5]
  Test B disease control rating: 100%
[6]
  Test C disease control rating: 99%

## COc1ccc(Cl)c(-c2cn(C)c(=O)cc2-c2ccccc2C(F)(F)F)c1 [Compound 70]
[1]
  Test E disease control rating: 93%
[2]
  Test F disease control rating: 0%
[3]
  Test D disease control rating: 0%
[4]
  Test A disease control rating: 50%
[5]
  Test B disease control rating: 68%
[6]
  Test C disease control rating: 83%

## COc1ccc(Cl)c(-c2cn(C)c(=O)c(Cl)c2-c2ccc(F)cc2Br)c1 [Compound 71]
[1]
  Test E disease control rating: 96%
[2]
  Test F disease control rating: 99%
[3]
  Test D disease control rating: 73%
[4]
  Test A disease control rating: 100%
[5]
  Test B disease control rating: 100%
[6]
  Test C disease control rating: 100%

## CCn1cc(-c2cc(OC)ccc2Cl)c(-c2ccc(F)cc2Cl)c(Cl)c1=O [Compound 75]
[1]
  Test E disease control rating: 98%
[2]
  Test F disease control rating: 0%
[3]
  Test D disease control rating: 0%
[4]
  Test A disease control rating: 97%
[5]
  Test B disease control rating: 97%
[6]
  Test C disease control rating: 0%

## CCCn1cc(-c2cc(OC)ccc2Cl)c(-c2ccc(F)cc2Cl)c(Cl)c1=O [Compound 76]
[1]
  Test E disease control rating: 96%
[2]
  Test F disease control rating: 0%
[3]
  Test D disease control rating: 0%
[4]
  Test A disease control rating: 63%
[5]
  Test B disease control rating: 55%
[6]
  Test C disease control rating: 0%

## C=CCn1cc(-c2cc(OC)ccc2Cl)c(-c2ccc(F)cc2Cl)c(Cl)c1=O [Compound 77]
[1]
  Test E disease control rating: 91%
[2]
  Test F disease control rating: 0%
[3]
  Test D disease control rating: 0%
[4]
  Test A disease control rating: 40%
[5]
  Test B disease control rating: 74%
[6]
  Test C disease control rating: 0%
